The text below walks through data of patent US20250230193A1, “CYCLIC COMPOUND HAVING SELECTIVE KRAS INHIBITORY EFFECT ON HRAS AND NRAS” (CHUGAI SEIYAKU KABUSHIKI KAISHA, priority 2022, published 2025).

Assay [1] has as its target GDP-bound NRAS wild-type protein (Homo sapiens, UniProt P01111). The assay can be described thus: Binding to NRAS by surface plasmon resonance (SPR), Single Cycle Kinetics. To be noted: SPR; KD ratio class.
In assay [2] the target is GDP-bound HRAS wild-type protein (Homo sapiens, UniProt P01112). Kind of assay: Binding to HRAS by surface plasmon resonance (SPR), Single Cycle Kinetics. To be noted: SPR; KD ratio class.
GDP-bound HRAS wild-type protein, sequence (P01112 whole entry): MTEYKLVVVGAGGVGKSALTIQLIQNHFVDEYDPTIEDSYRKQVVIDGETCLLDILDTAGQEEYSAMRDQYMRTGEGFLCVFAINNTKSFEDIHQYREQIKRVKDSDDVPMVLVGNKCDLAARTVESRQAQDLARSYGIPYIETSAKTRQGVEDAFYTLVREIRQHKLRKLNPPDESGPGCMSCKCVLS
Assay [3] concerns human lung cancer strain NCI-H441. The assay can be described thus: cells. To be noted: NCI-H441, 96 h, read-out: NCI-H441 IC50 (nM).

GDP-bound NRAS wild-type protein, sequence (P01111 whole entry): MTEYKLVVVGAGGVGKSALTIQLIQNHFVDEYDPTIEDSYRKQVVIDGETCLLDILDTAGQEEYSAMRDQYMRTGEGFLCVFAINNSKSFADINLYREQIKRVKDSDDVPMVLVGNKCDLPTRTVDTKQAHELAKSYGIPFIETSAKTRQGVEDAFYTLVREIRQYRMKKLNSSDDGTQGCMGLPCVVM

As for `CCO[C@@H]1C[C@H]2C(=O)NC3(CCCC3)C(=O)N(C)[C@@H](C3CCCC3)C(=O)N(C)[C@H](C(=O)N(C)C)CC(=O)N(C)[C@@H](C)C(=O)N[C@@H]([C@@H](C)CC)C(=O)N(C)CC(=O)N(C)[C@H]3C/C=C\CCN(C3=O)[C@@H](CC3CCCCC3)C(=O)N(C)CC(=O)N[C@@H](CCc3cc(F)c(C(F)(F)F)c(F)c3)C(=O)N2C1` [PP1470], the “NRAS/KRAS (ratio of KD value for GDP-bound NRAS wild-type protein to KD value for KRAS)” value in assay [1] was “A (a compound having 10 or more and less than 20 is denoted as A)”. In addition, the “HRAS/KRAS (ratio of KD value for GDP-bound HRAS wild-type protein to KD value for KRAS)” value in assay [2] is “A (a compound having 10 or more and less than 20 is denoted as A)”. Moreover, the IC50 in assay [3] amounted to 111 nM.

Regarding `CCO[C@@H]1C[C@H]2C(=O)NC3(CCC3)C(=O)N(C)[C@@H](C3CCCC3)C(=O)N(C)[C@H](C)CC(=O)N(C)[C@@H](CC3CC3)C(=O)N[C@@H]([C@@H](C)CC)C(=O)N(C)CC(=O)N(C)[C@H]3C/C=C\CCN(C3=O)[C@@H](Cc3ccc(F)cc3)C(=O)N(C)CC(=O)N[C@@H](CCc3cc(F)c(C(F)(F)F)c(F)c3)C(=O)N2C1` [PP1490], the “NRAS/KRAS (ratio of KD value for GDP-bound NRAS wild-type protein to KD value for KRAS)” value in assay [1] is “B (a compound having 3 or more and less than 10 is denoted as B)”. For the same molecule, in assay [2], the “HRAS/KRAS (ratio of KD value for GDP-bound HRAS wild-type protein to KD value for KRAS)” value was “B (a compound having 3 or more and less than 10 is denoted as B)”. In addition, the IC50 in assay [3] was 48.9 nM.

For the molecule `CCO[C@@H]1C[C@H]2C(=O)NC(C)(C)C(=O)N(C)[C@@H](C3CCCC3)C(=O)N(C)[C@H](C(=O)N(C)C)CC(=O)N(C)[C@@H](CC)C(=O)N[C@@H]([C@@H](C)CC)C(=O)N(C)CC(=O)N(C)[C@H]3C/C=C\CCN(C3=O)[C@@H](Cc3ccc(C(F)(F)F)cc3)C(=O)N(C)CC(=O)N[C@@H](CCc3cc(F)c(C(F)(F)F)c(F)c3)C(=O)N2C1` [PP1280], the “NRAS/KRAS (ratio of KD value for GDP-bound NRAS wild-type protein to KD value for KRAS)” value in assay [1] is “A (a compound having 10 or more and less than 20 is denoted as A)”. Moreover, the “HRAS/KRAS (ratio of KD value for GDP-bound HRAS wild-type protein to KD value for KRAS)” value in assay [2] was “A (a compound having 10 or more and less than 20 is denoted as A)”. The IC50 in assay [3] worked out at 34.4 nM.

With `CCCC[C@H]1C(=O)N[C@@H]([C@@H](C)CC)C(=O)N(C)CC(=O)N(C)[C@H]2C/C=C\CCN(C2=O)[C@@H](Cc2ccc(C(F)(F)F)cc2)C(=O)N(C)CC(=O)N[C@@H](CCc2ccc(C(F)(F)F)c(OC)c2)C(=O)N2C[C@H](OCC)C[C@H]2C(=O)NC2(CC(C)(C)C2)C(=O)N(C)[C@@H](C2CCCC2)C(=O)N(C)[C@H](C(=O)N(C)C)CC(=O)N1C` [PP1561], the “NRAS/KRAS (ratio of KD value for GDP-bound NRAS wild-type protein to KD value for KRAS)” value in assay [1] is “A (a compound having 10 or more and less than 20 is denoted as A)”. Also, the “HRAS/KRAS (ratio of KD value for GDP-bound HRAS wild-type protein to KD value for KRAS)” value in assay [2] is “B (a compound having 3 or more and less than 10 is denoted as B)”. Moreover, the IC50 in assay [3] worked out at 2.7 nM.

On to `CCO[C@@H]1C[C@H]2C(=O)NC3(CCC3)C(=O)N(C)[C@@H](C3CCCC3)C(=O)N(C)[C@H](C(=O)N(C)C)CC(=O)N(C)[C@@H](CC3CC3)C(=O)N[C@@H]([C@@H](C)CC)C(=O)N(C)CC(=O)N(C)[C@H]3C/C=C\CCN(C3=O)[C@@H](Cc3ccc(F)cc3)C(=O)N(C)CC(=O)N[C@@H](CCc3cc(F)c(Cl)c(F)c3)C(=O)N2C1` [PP1479], for which the “NRAS/KRAS (ratio of KD value for GDP-bound NRAS wild-type protein to KD value for KRAS)” value in assay [1] is “A (a compound having 10 or more and less than 20 is denoted as A)”. The “HRAS/KRAS (ratio of KD value for GDP-bound HRAS wild-type protein to KD value for KRAS)” value in assay [2] is “B (a compound having 3 or more and less than 10 is denoted as B)”. Also, the IC50 in assay [3] was determined as 140 nM.

For `CCO[C@@H]1C[C@H]2C(=O)NC3(CCC3)C(=O)N(C)[C@@H](C(CC)CC)C(=O)N(C)[C@H](C(=O)N(C)C)CC(=O)N(C)[C@@H](CC3CC3)C(=O)N[C@@H]([C@@H](C)CC)C(=O)N(C)CC(=O)N(C)[C@H]3C/C=C\CCN(C3=O)[C@@H](Cc3ccc(F)cc3C)C(=O)N(C)CC(=O)N[C@@H](CCc3cc(F)c(C(F)(F)F)c(F)c3)C(=O)N2C1` [PP1514], the “NRAS/KRAS (ratio of KD value for GDP-bound NRAS wild-type protein to KD value for KRAS)” value in assay [1] is “A (a compound having 10 or more and less than 20 is denoted as A)”. Further, in assay [2], the “HRAS/KRAS (ratio of KD value for GDP-bound HRAS wild-type protein to KD value for KRAS)” value was “A (a compound having 10 or more and less than 20 is denoted as A)”. Also, in assay [3], the IC50 came out at 72.7 nM.

On to `CCO[C@@H]1C[C@H]2C(=O)NC3(CCC3)C(=O)N(C)[C@@H](C3CCCC3)C(=O)N(C)[C@H](C(=O)N(C)C)CC(=O)N(C)[C@@H](CC(C)C)C(=O)N[C@@H]([C@@H](C)CC)C(=O)N(C)CC(=O)N(C)[C@H]3C/C=C\CCN(C3=O)[C@@H](Cc3ccc(C(F)(F)F)cc3)C(=O)N(C)CC(=O)N[C@@H](CCc3ccc4sccc4c3)C(=O)N2C1` [PP1257], for which the “NRAS/KRAS (ratio of KD value for GDP-bound NRAS wild-type protein to KD value for KRAS)” value in assay [1] was “A (a compound having 10 or more and less than 20 is denoted as A)”. Besides, in assay [2], the “HRAS/KRAS (ratio of KD value for GDP-bound HRAS wild-type protein to KD value for KRAS)” value is “A (a compound having 10 or more and less than 20 is denoted as A)”. For the same molecule, in assay [3], the IC50 stood at 54.3 nM.

In the case of `CCO[C@@H]1C[C@H]2C(=O)NC3(CCC3)C(=O)N(C)[C@@H](C3CCCC3)C(=O)N(C)[C@H](C(=O)N(C)C)CC(=O)N(C)[C@@H](CC(C)C)C(=O)N[C@@H]([C@@H](C)CC)C(=O)N(C)CC(=O)N(C)[C@H]3C/C=C\CCN(C3=O)[C@@H](Cc3ccc(F)cc3C)C(=O)N(C)CC(=O)N[C@@H](CCc3cc(F)c(C(F)(F)F)c(F)c3)C(=O)N2C1` [PP1532], in assay [1], the “NRAS/KRAS (ratio of KD value for GDP-bound NRAS wild-type protein to KD value for KRAS)” value is “A (a compound having 10 or more and less than 20 is denoted as A)”. Besides, the “HRAS/KRAS (ratio of KD value for GDP-bound HRAS wild-type protein to KD value for KRAS)” value in assay [2] is “B (a compound having 3 or more and less than 10 is denoted as B)”. Also, the IC50 in assay [3] turned out to be 13.4 nM.

`CCO[C@@H]1C[C@H]2C(=O)NC3(CCC3)C(=O)N(C)[C@@H](C3CCCC3)C(=O)N(C)[C@H](C(=O)N3CCOCC3)CC(=O)N(C)[C@@H](CC)C(=O)N[C@@H]([C@@H](C)CC)C(=O)N(C)CC(=O)N(C)[C@H]3C[C@@H](C)[C@@H](C)CN(C3=O)[C@@H](Cc3ccc(C(F)(F)F)cc3)C(=O)N(C)CC(=O)N[C@@H](CCc3ccc(C(F)(F)F)c(Cl)c3)C(=O)N2C1` [PP1360]: the “NRAS/KRAS (ratio of KD value for GDP-bound NRAS wild-type protein to KD value for KRAS)” value in assay [1] is “A (a compound having 10 or more and less than 20 is denoted as A)”. Moreover, the “HRAS/KRAS (ratio of KD value for GDP-bound HRAS wild-type protein to KD value for KRAS)” value in assay [2] was “B (a compound having 3 or more and less than 10 is denoted as B)”. Besides, the IC50 in assay [3] came out at 4.9 nM.

For `CCO[C@@H]1C[C@H]2C(=O)NC3(CCC3)C(=O)N(C)[C@@H](C3CCCC3)C(=O)N(C)[C@H](C(=O)N3CCCCC3)CC(=O)N(C)[C@@H](CC3CC3)C(=O)N[C@@H]([C@@H](C)CC)C(=O)N(C)CC(=O)N(C)[C@H]3C/C=C\CCN(C3=O)[C@@H](Cc3ccc(C(F)(F)F)cc3)C(=O)N(C)CC(=O)N[C@@H](CCc3cc(F)c(C(F)(F)F)c(F)c3)C(=O)N2C1` [PP1291], the “NRAS/KRAS (ratio of KD value for GDP-bound NRAS wild-type protein to KD value for KRAS)” value in assay [1] was “A (a compound having 10 or more and less than 20 is denoted as A)”. Further, in assay [2], the “HRAS/KRAS (ratio of KD value for GDP-bound HRAS wild-type protein to KD value for KRAS)” value was “A (a compound having 10 or more and less than 20 is denoted as A)”. For the same molecule, the IC50 in assay [3] was 16.7 nM.

As for `CCO[C@@H]1C[C@H]2C(=O)NC3(CCC3)C(=O)N(C)[C@@H](C(CC)CC)C(=O)N(C)[C@H](C(=O)N(C)C)CC(=O)N(C)[C@@H](CC(C)C)C(=O)N[C@@H]([C@@H](C)CC)C(=O)N(C)CC(=O)N(C)[C@H]3C/C=C\CCN(C3=O)[C@@H](Cc3ccc(C(F)(F)F)cc3)C(=O)N(C)CC(=O)N[C@@H](CCc3ccc4sccc4c3)C(=O)N2C1` [PP1225], in assay [1], the “NRAS/KRAS (ratio of KD value for GDP-bound NRAS wild-type protein to KD value for KRAS)” value is given as “AA (a compound having 20 or more is denoted as AA)”. In assay [2], the “HRAS/KRAS (ratio of KD value for GDP-bound HRAS wild-type protein to KD value for KRAS)” value was “A (a compound having 10 or more and less than 20 is denoted as A)”. Further, in assay [3], the IC50 is 92.5 nM.

On to `CCO[C@@H]1C[C@H]2C(=O)NC3(CCC3)C(=O)N(C)[C@@H](C(CC)CC)C(=O)N(C)[C@H](C(=O)N(C)C)CC(=O)N(C)[C@@H](CC(C)C)C(=O)N[C@@H]([C@@H](C)CC)C(=O)N(C)CC(=O)N(C)[C@H]3C/C=C\CCN(C3=O)[C@@H](Cc3ccc(C(F)(F)F)cc3)C(=O)N(C)CC(=O)N[C@@H](CCc3ccc(Cl)c(Cl)c3)C(=O)N2C1` [PP1217], for which the “NRAS/KRAS (ratio of KD value for GDP-bound NRAS wild-type protein to KD value for KRAS)” value in assay [1] is recorded as “AA (a compound having 20 or more is denoted as AA)”. For the same molecule, the “HRAS/KRAS (ratio of KD value for GDP-bound HRAS wild-type protein to KD value for KRAS)” value in assay [2] is “A (a compound having 10 or more and less than 20 is denoted as A)”. Also, the IC50 in assay [3] was determined as 17.8 nM.

Consider `CCO[C@@H]1C[C@H]2C(=O)NC3(CCC3)C(=O)N(C)[C@@H](C(CC)CC)C(=O)N(C)[C@H](C)CC(=O)N(C)[C@@H](CC3CC3)C(=O)N[C@@H]([C@@H](C)CC)C(=O)N(C)CC(=O)N(C)[C@H]3C/C=C\CCN(C3=O)[C@@H](Cc3ccc(F)cc3C)C(=O)N(C)CC(=O)N[C@@H](CCc3cc(F)c(C(F)(F)F)c(F)c3)C(=O)N2C1` [PP1520], for which the “NRAS/KRAS (ratio of KD value for GDP-bound NRAS wild-type protein to KD value for KRAS)” value in assay [1] was “A (a compound having 10 or more and less than 20 is denoted as A)”. For the same molecule, the “HRAS/KRAS (ratio of KD value for GDP-bound HRAS wild-type protein to KD value for KRAS)” value in assay [2] is “A (a compound having 10 or more and less than 20 is denoted as A)”. The half-inhibitory concentration (IC50) in assay [3] stood at 575 nM.

As to `CCO[C@@H]1C[C@H]2C(=O)NC3(CCC3)C(=O)N(C)[C@@H](C3CCCC3)C(=O)N(C)[C@H](C(=O)N3CCOCC3)CC(=O)N(C)[C@@H](CC3CCCC3)C(=O)N[C@@H]([C@@H](C)CC)C(=O)N(C)CC(=O)N(C)[C@H]3C/C=C\CCN(C3=O)[C@@H](Cc3ccc(C)cc3)C(=O)N(C)CC(=O)N[C@@H](CCc3cc(F)c(C(F)(F)F)c(F)c3)C(=O)N2C1` [PP1394], in assay [1], the “NRAS/KRAS (ratio of KD value for GDP-bound NRAS wild-type protein to KD value for KRAS)” value is “AA (a compound having 20 or more is denoted as AA)”. For the same molecule, in assay [2], the “HRAS/KRAS (ratio of KD value for GDP-bound HRAS wild-type protein to KD value for KRAS)” value was “A (a compound having 10 or more and less than 20 is denoted as A)”. Further, the IC50 in assay [3] was 25.1 nM.
